As a reminder, the Ki is a measure of affinity in units of concentration, obtained from inhibition or displacement.

For assay [1], the target named is T1, Alpha-2D Adrenergic Receptor (Rattus norvegicus, UniProt P22909).
T1 construct: aliquots of the synaptic membrane fraction; from tissue; host or cells: rat cerebral cortex, synaptic membrane fraction (male Wistar rats)
T1 sequence (P22909 1-465): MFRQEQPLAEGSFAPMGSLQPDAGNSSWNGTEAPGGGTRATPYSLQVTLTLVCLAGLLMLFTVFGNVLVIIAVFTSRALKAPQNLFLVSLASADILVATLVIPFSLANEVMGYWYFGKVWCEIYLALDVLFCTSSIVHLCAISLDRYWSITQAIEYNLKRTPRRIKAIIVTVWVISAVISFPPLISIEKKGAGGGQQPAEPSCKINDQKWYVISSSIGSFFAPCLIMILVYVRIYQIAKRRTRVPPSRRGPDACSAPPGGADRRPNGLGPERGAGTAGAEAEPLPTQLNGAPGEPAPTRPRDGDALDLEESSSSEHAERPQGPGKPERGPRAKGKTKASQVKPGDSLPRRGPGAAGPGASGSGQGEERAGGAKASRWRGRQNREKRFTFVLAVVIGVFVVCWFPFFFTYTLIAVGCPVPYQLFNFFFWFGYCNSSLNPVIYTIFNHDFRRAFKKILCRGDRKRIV
The assay is described as follows: Alpha-2D Adrenergic Receptor Binding Assay (3H-para-aminoclonidine, rat cortex membranes). The note with it: rat cortex synaptic membranes. How it is done:
Male, Wistar rats (150-250 g, VAF, Charles River, Kingston, N.Y.) are sacrificed by cervical dislocation and their brains removed and placed immediately in ice cold HEPES buffered sucrose. The cortex is dissected out and homogenized in 20 volumes of HEPES sucrose in a Teflon™-glass homogenizer. The homogenate is centrifuged at 1000 g for 10 min, and the resulting supernatant centrifuged at 42,000 g for 10 min. The resulting pellet is resuspended in 30 volumes of 3 mM potassium phosphate buffer, pH 7.5, preincubated at 25° C. for 30 min and recentrifuged. The resulting pellet is resuspended as described above and used for the receptor binding assay. Incubation is performed in test tubes containing phosphate buffer, 2.5 mM MgCl2, aliquots of the synaptic membrane fraction, the ligand ^3 H-para-aminoclonidine and test drug at 25° C. for 20 min. The incubation is terminated by filtration of the tube contents through glass fiber filter sheets. Following washing of the sheets with 10 mM HEPES buffer, the adhering radioactivity is quantified by liquid scintillation spectrometry.
Binding of the test drug to the receptor is determined by comparing the amount of radiolabeled ligand bound in control tubes without drug to the amount of radiolabeled ligand bound in the presence of the drug. Dose-response data are analyzed with LIGAND, a nonlinear curve fitting program designed specifically for the analysis of ligand binding data. This assay is described by Simmons, R. M. A., and Jones, D. J., Binding of [^3 H-]prazosin and [^3 H]p-aminoclonidine to (α-Adrenoceptors in Rat Spinal Cord, Brain Research 445:338-349, 1988.

The test system of assay [2] is abdominal constriction response. The assay is described as follows: Mouse Acetylcholine Bromide-Induced Abdominal Constriction Assay (MAIT). The format is in vivo. Particulars: 30 mg/kg po; 5.5 mg/kg i.p. acetylcholine bromide 30 minutes later; ten minute observation. As to the method: The mouse acetylcholine bromide-induced abdominal constriction assay, is described by Collier et al. in Brit. J. Pharmacol. Chem. Ther., 32: 295-310, 1968, with minor modifications was used to assess analgesic potency of the compounds herein. The test drugs or appropriate vehicle were administered orally (p.o.) and 30 minutes later the animal received an intraperitoneal (i.p.) injection of 5.5 mg/kg acetylcholine bromide (Matheson, Coleman and Bell, East Rutherford, N.J.). The mice were then placed in groups of three into glass bell jars and observed for a ten minute observation period for the occurrence of an abdominal constriction response (defined as a wave of constriction and elongation passing caudally along the abdominal wall, accompanied by a twisting of the trunk and followed by extension of the hind limbs). The percent inhibition of this response to a nociceptive stimulus (equated to % analgesia) was calculated as follows: The % Inhibition of response, i.e., % analgesia is equal to the difference between the number of control animals responding and the number of drug-treated animals responding times 100 divided by the number of control animals responding.
At least 15 animals were used for control and in each of the drug treated groups. At least three doses were used to determine each dose response curve and ED50 (that dose which would produce 50% analgesia). The ED50 values and their 95% fiducial limits were determined by a computer assisted probit analysis.

Setting [3] is: 25° C., 20 min, read-out: α-2D Binding Ki.

The structures appear in SMILES notation. Read-outs that look alike come from different tables or passages of the source.

On to `c1cc(-c2c[nH]cn2)c2ccsc2c1` [Cp-1, 4-(Thionaphth-4-yl)-1H-imidazole (Z)-2-butenedioate], for which the Ki in assay [1] (setting [3]) was 2.6 nM. For the same compound, the “MAIT Activity % Inhibition” value in assay [2] is reported as 73%.
As for `C1=C(c2c[nH]cn2)c2ccsc2CC1` [Cp-2, 4-(4-Imidazoyl)-6,7-dihydrothianapthene Perchlorate], the Ki in assay [1] (setting [3]) turned out to be 1.5 nM. Besides, the “MAIT Activity % Inhibition” value in assay [2] worked out at 100%.
In the case of `c1nc(C2CCCc3sccc32)c[nH]1` (stereo not shown) [Cp-3, 4-(4-Imidazoyl)-4,5,6,7-tetrahydrothianapthene Perchlorate], the Ki in assay [1] (setting [3]) was 0.56 nM. Also, the “MAIT Activity % Inhibition” value in assay [2] was 100%.
Regarding `Cc1sc(C)c2c1CCC=C2c1c[nH]cn1` [Cp-4, 4-(1,3-Dimethyl-6,7-dihydrobenzo[c]thiophene-4-yl)-1H-imidazole(Z)-2-Butenedioate], in assay [1] (value in parentheses, not explained, read-out: α-2D Binding Ki (second value, in parentheses)), the Ki stood at 1.2 nM. Besides, the “MAIT Activity % Inhibition” value in assay [2] is given as 40%.
With `Cc1sc(C)c2c1CCCC2c1c[nH]cn1.O=C(O)/C=C\C(=O)O` (stereo not shown) [Cp-5, 4-(1,3-Dimethyl-4,5,6,7-tetrahydrobenzo[c]thiophene-4-yl)-1H-imidazole (Z)-2-Butenedioate], the Ki in assay [1] (setting [3]) was determined as 2.9 nM. The “MAIT Activity % Inhibition” value in assay [2] stood at 93%.
As to `c1nc(C2CCCc3ccsc32)c[nH]1` (stereo not shown) [Cp-6], the Ki in assay [1] (setting [3]) was 0.35 nM.
Regarding `C1=C(c2c[nH]cn2)c2sccc2CC1` [Cp-7], the Ki in assay [1] (setting [3]) was found to be 3 nM. Further, in assay [2], the “MAIT Activity % Inhibition” value was 60%.

These data come from patent US6313309A, “4-thionaphthyl--1H--imidazoles which are usefulα22-adrenoceptoR agonists/ antagonists” (Ortho-McNeil Pharmaceutical, Inc., priority 1999, dated 2001).
